In one experiment the target is T1, Human mTOR (FLAG-TOR) (Homo sapiens, UniProt P42345).
T1 construct: FLAG
Kind of experiment: Human mTOR kinase assay with purified enzyme, DELFIA format. It is filed as biochemical. The procedure: Enzymes are first diluted in kinase assay buffer (10 mM HEPES (pH 7.4), 50 mM NaCl, 50 mM β-glycerophosphate, 10 mM MnCl2, 0.5 mM DTT, 0.25 mM microcystin LR, and 100 mg/mL BSA). To each well, 12 μL of the diluted enzyme is mixed briefly with 0.5 μL test inhibitor or control vehicle dimethylsulfoxide (DMSO). […] The reaction plate is incubated for 2 hours (linear at 1-6 hours) at room temperature with gentle shaking and then terminated by adding 25 μL Stop buffer (20 mM HEPES (pH 7.4), 20 mM EDTA, 20 mM EGTA). […] The DELFIA Assay buffer and Enhancement solution can be purchased from PerkinElmer. 45 μL of the terminated kinase reaction mixture is transferred to a MaxiSorp plate (Nunc) containing 55 μL PBS. The His6-S6K is allowed to attach for 2 hours after which the wells are aspirated and washed once with PBS. 100 μL of DELFIA Assay buffer with 40 ng/mL Eu—P(T389)-S6K antibody is added. The antibody binding is continued for 1 hour with gentle agitation. The wells are then aspirated and washed 4 times with PBS containing 0.05% Tween-20 (PBST). 100 μL of DELFIA Enhancement solution is added to each well and the plates are read in a PerkinElmer Victor model plate reader. Data obtained is used to calculate enzymatic activity and enzyme inhibition by potential inhibitors.

A further experiment concerns breast line MDA468. Kind of experiment: In vitro cell culture growth assay (MTS), MDA468. The following applies: Homo sapiens, 72 h, MDA468 cells, three days after drug treatment. It is filed as cell-based. The procedure:
(§1) Human tumor cell lines used include prostate lines LNCap and PC3MM2, breast lines MDA468, MCF7, renal line HTB44 (A498), colon line HCT116, and ovarian line OVCAR3. Cells were plated in 96-well culture plates. One day following plating, the inhibitors were added to cells. Three days after drug treatment, viable cell densities were determined by metabolic conversion (by viable cells) of the dye MTS, a well-established cell proliferation assay. The assays were performed using an assay kit purchased from Promega Corp. (Madison, Wis.) following the protocol supplied with the kit. The MTS assay results were read in a 96-well plate reader by measuring absorbance at 490 nm. The effect of each treatment was calculated as percent of control growth relative to the vehicle-treated cells grown in the same culture plate.

In experiment [1] the target is T2, PI3K (Homo sapiens, UniProt P48736).
T2 construct: PI3 Kinase γ IC50; other: PI3 Kinase γ; other: PI3 Kinase γ isoform, fluorescence polarization
Nature of the experiment: Fluorescence polarization assay for PI3K. It is filed as biochemical. The following applies: read-out: PI3 Kinase γ IC50. The procedure:
(§2) This assay is used to determine the IC50 of compounds of the present invention as it identifies inhibitors of PI3 kinase by measuring inhibition.
(§3) The assay is run by placing 5 μL of diluted enzyme per well, then 5 μL of diluted compound (or 9.5 μL enzyme then 0.5 μL compound in DMSO) is added and mixed. Then, 10 μL substrate is added to start the reaction. The samples are incubated 30-60 minutes, then the reaction is stopped by adding 20 μL stop/detector mix. PI3K is diluted with reaction buffer (e.g., 5 μL or 7.5 μL PI3K into 620 μL reaction buffer), and 5 μL of diluted enzyme is used per well. 5 μL reaction buffer or drug diluted in buffer (e.g., 4 μL/100 so final DMSO is 1% in reaction) is added to each. Pipetting up and down mixes the samples. Alternatively, the enzyme can be diluted to 1215 μL. In this case 9.8 μL is added per well and 0.2 μL compound is added in DMSO. To prepare 1 mL of substrate solution, 955 μL reaction buffer, 40 μL PIP2, and 2.5 μL ATP are mixed. 10 μL of substrate is added to each well to start the reaction.
(§4) Stop/detector mix is prepared by mixing 4 μL Red detector and 1.6 μL or 2.0 μL GST-GRP with 1 mL Stop buffer, which results in 10 nM probe and 70 nM GST-GRP). 20 μL of the stop/detector mix is added to each well to stop the reaction. The plates are read after 30-90 minutes keeping the red probe solutions dark. For the zero time point, stop/detector mix is added to the enzyme just before adding substrate. For an extra control, stop/detector mix is added to buffer (no enzyme) and substrate or to just buffer (no substrate). […] Plates are read on machines with filters for Tamra. The units are mP with no enzyme controls reading app 190-220 mP units. Fully active enzyme reduces fluorescence polarization down to 70-100 mP after 30 minutes.
In general terms: In fluorescence polarisation assays a small probe gives low polarisation when free and higher when bound to something large.

The target of experiment [2] is T3, PI3K (Homo sapiens, UniProt P42336).
T3 construct: PI3 Kinase α IC50; other: PI3 Kinase α; other: PI3 Kinase α isoform, fluorescence polarization
Nature of the experiment: Fluorescence polarization assay for PI3K. It is filed as biochemical. The following applies: read-out: PI3 Kinase α IC50. The procedure:
as §2, §3, §4

For the next experiment, the system named is prostate line LNCap. Nature of the experiment: In vitro cell culture growth assay (MTS), LNCap. It counts as cell-based. The following applies: Homo sapiens, LNCaP, 72 h, LNCap cells, three days after drug treatment. The procedure: as §1
Where [3] appears, read: purified human mTOR enzyme, DELFIA format.
The mark [4] stands for this setting: PI3 Kinase γ isoform, fluorescence polarization.
Where [5] appears, read: PI3 Kinase α isoform, fluorescence polarization.

Like-named read-outs stand apart in the source and are kept apart here. Where only a bound is given, the exact number is not on record here.

Drawing on patent publication US8129371B2, “Thienopyrimidine and pyrazolopyrimidine compounds and their use as mTOR kinase and PI3 kinase inhibitors” (Wyeth LLC, priority 2007, dated 2012), this text covers IC50 for seven compounds.

T3 sequence (P42336 whole entry, canonical isoform): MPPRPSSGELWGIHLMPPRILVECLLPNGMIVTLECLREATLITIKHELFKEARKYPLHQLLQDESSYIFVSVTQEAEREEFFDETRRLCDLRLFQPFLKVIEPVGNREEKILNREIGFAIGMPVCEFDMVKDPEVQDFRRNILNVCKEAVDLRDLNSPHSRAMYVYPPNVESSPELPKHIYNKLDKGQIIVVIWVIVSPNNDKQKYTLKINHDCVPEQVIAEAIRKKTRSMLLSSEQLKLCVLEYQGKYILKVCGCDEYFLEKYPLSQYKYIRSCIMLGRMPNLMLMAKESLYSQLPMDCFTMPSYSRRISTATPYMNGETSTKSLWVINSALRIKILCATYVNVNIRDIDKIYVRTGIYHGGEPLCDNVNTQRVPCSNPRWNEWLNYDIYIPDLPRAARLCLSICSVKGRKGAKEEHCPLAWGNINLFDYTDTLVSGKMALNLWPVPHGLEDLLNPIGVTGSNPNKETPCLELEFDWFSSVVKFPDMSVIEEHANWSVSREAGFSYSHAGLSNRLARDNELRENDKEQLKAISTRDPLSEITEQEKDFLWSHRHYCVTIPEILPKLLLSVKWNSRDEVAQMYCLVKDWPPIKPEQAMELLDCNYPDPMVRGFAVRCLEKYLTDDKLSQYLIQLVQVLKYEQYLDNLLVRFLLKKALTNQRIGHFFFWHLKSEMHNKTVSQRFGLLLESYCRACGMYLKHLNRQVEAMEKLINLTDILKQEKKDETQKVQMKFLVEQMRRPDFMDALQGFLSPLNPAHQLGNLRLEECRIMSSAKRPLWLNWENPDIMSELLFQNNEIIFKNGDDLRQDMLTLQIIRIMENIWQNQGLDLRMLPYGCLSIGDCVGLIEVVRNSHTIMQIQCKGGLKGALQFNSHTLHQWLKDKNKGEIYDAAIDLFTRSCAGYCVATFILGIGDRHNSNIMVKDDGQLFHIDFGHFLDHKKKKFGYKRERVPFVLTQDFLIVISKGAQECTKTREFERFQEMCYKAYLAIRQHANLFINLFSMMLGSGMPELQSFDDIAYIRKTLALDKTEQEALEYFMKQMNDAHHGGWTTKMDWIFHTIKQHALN
T2 sequence (P48736 whole entry, canonical isoform): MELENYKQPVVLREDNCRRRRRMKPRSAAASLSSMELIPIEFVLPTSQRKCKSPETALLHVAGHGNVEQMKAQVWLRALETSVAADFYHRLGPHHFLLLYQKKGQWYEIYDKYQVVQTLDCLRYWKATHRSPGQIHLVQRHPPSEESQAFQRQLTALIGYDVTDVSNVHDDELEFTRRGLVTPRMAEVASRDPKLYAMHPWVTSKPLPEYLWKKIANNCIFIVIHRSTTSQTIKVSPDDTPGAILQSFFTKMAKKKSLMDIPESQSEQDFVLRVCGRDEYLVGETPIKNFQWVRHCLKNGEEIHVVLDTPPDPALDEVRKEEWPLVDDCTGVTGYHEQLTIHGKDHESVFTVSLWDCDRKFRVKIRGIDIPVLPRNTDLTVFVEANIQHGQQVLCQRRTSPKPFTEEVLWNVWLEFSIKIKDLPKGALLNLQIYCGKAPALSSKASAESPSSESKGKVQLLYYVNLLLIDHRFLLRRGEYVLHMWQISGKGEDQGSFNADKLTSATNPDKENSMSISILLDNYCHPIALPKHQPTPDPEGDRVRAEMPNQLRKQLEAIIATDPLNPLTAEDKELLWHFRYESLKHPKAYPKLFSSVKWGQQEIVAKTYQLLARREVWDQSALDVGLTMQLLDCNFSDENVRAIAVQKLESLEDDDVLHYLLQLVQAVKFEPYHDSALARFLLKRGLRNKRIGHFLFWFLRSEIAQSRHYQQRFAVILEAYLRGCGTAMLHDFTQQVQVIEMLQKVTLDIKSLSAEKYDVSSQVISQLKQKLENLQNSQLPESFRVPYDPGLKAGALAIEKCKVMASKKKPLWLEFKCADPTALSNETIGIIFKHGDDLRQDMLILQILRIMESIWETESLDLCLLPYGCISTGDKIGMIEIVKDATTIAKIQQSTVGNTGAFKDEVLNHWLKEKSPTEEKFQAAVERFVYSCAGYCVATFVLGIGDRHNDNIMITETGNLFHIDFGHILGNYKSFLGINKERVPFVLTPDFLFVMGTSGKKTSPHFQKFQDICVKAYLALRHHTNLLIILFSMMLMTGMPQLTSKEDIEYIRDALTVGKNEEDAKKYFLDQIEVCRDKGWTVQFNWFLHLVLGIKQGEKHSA

For the compound `CC(C)n1ncc2c(N3CC4CCC(C3)O4)nc(-c3ccc(NC(=O)OCCCO)cc3)nc21` [Example 145, 3-hydroxypropyl {4-[1-isopropyl-4-(8-oxa-3-azabicyclo[3.2.1]oct-3-yl)-1H-pyrazolo[3,4-d]pyrimidin-6-yl]phenyl}carbamate], the IC50 (in general, the concentration that gives 50% inhibition) was 2.75 nM at Human mTOR (FLAG-TOR); 12000 nM in the experiment with breast line MDA468; above 10000 nM at PI3K [1] (PI3 Kinase γ); 3360 nM on PI3K [2] (PI3 Kinase α); 250 nM in the experiment on prostate line LNCap.

Regarding `CCn1ncc2c(N3CC4CCC(C3)O4)nc(-c3ccc(NC(=O)Nc4ccc(N(C)C)nc4)cc3)nc21` [Example 284, 1-[6-(dimethylamino)pyridin-3-yl]-3-{4-[1-ethyl-4-(8-oxa-3-azabicyclo[3.2.1]oct-3-yl)-1H-pyrazolo[3,4-d]pyrimidin-6-yl]phenyl}urea], the IC50 on Human mTOR (FLAG-TOR) was 1.5 nM; in the experiment with breast line MDA468, 80 nM; on PI3K [1] (PI3 Kinase γ) it was above 10000 nM; at PI3K [2] (PI3 Kinase α) it was 419 nM; in the experiment with prostate line LNCap it was 6 nM.

`N#CCCn1ncc2c(N3CC4CCC(C3)O4)nc(-c3ccc(NC(=O)Nc4ccc(CO)cc4)cc3)nc21` [Example 218, 1-{4-[1-(2-cyanoethyl)-4-(8-oxa-3-azabicyclo[3.2.1]oct-3-yl)-1H-pyrazolo[3,4-d]pyrimidin-6-yl]phenyl}-3-[4-(hydroxymethyl)phenyl]urea]: the IC50 against Human mTOR (FLAG-TOR) is 0.122 nM; in the experiment on breast line MDA468, below 1 nM; at PI3K [1] (PI3 Kinase γ), 2200 nM; on PI3K [2] (PI3 Kinase α), 40 nM; in the experiment with prostate line LNCap, below 1 nM.

For the compound `CCn1ncc2c(N3CC4CCC(C3)O4)nc(-c3ccc(NC(=O)Nc4ccc(C)cc4)cc3)nc21` [Example 189, 1-{4-[1-ethyl-4-(8-oxa-3-azabicyclo[3.2.1]oct-3-yl)-1H-pyrazolo[3,4-d]pyrimidin-6-yl]phenyl}-3-(4-methylphenyl)urea], the IC50 stood at 0.885 nM on Human mTOR (FLAG-TOR); 20 nM in the experiment with breast line MDA468; 11000 nM at PI3K [1] (PI3 Kinase γ); 849 nM at PI3K [2] (PI3 Kinase α); 5 nM in the experiment on prostate line LNCap.

For `O=C(Nc1ccc(-c2nc(N3CC4CCC(C3)O4)c3cnn(CCF)c3n2)cc1)Nc1ccc(N2CCOCC2)cc1` [Example 244, 1-{4-[1-(2-fluoroethyl)-4-(8-oxa-3-azabicyclo[3.2.1]oct-3-yl)-1H-pyrazolo[3,4-d]pyrimidin-6-yl]phenyl}-3-(4-morpholin-4-ylphenyl)urea], the IC50 is 0.185 nM against Human mTOR (FLAG-TOR); 7 nM in the experiment on breast line MDA468; above 10000 nM at PI3K [1] (PI3 Kinase γ); 739 nM on PI3K [2] (PI3 Kinase α); 1 nM in the experiment on prostate line LNCap.

On to `CNC(=O)Nc1ccc(-c2nc(N3CC4CCC(C3)O4)c3cnn(C4CCC5(CCCO5)CC4)c3n2)cc1` (single isomer, unassigned) [Example 389, 1-methyl-3-(4-{4-(8-oxa-3-azabicyclo[3.2.1]oct-3-yl)-1-[(5r,8r)-1-oxaspiro[4.5]dec-8-yl]-1H-pyrazolo[3,4-d]pyrimidin-6-yl}phenyl)urea], for which the IC50 was 0.285 nM at Human mTOR (FLAG-TOR) (setting [3]); 17 nM with breast line MDA468; above 10000 nM on PI3K [1] (setting [4]); 909 nM on PI3K [2] (setting [5]); 2 nM in the experiment with prostate line LNCap.

Regarding `CN1CCN(C2CCC(n3ncc4c(N5CC6CCC(C5)O6)nc(-c5ccc(NC(=O)NCCF)cc5)nc43)CC2)CC1` (centres unmarked) [Example 371, 1-(2-fluoroethyl)-3-(4-{1-[4-(4-methylpiperazin-1-yl)cyclohexyl]-4-(8-oxa-3-azabicyclo[3.2.1]oct-3-yl)-1H-pyrazolo[3,4-d]pyrimidin-6-yl}phenyl)urea], the IC50 against Human mTOR (FLAG-TOR) (setting [3]) was 1.3 nM; with breast line MDA468, 460 nM; on PI3K [1] (setting [4]), 8930 nM; at PI3K [2] (setting [5]) it was 2490 nM; in the experiment on prostate line LNCap, 190 nM.
